In patent US20100041089A1, “IMPROVED METHOD FOR DETECTING CHEMICAL […]” (priority 2006, published 2010):

Tested on: yeast genes (expressed mRNA)
Assay: DNA chip measurement of expressed mRNA of yeast genes after culture with a toxic chemical substance
Format: cell-based, Saccharomyces cerevisiae S288C
Experimental: Yeast (Saccharomyces cerevisiae S288C (a SUC2mal mel gap2 CUP1)) were cultured at 25° C. on YPD medium (yeast extract 1%, polypeptone 2%, glucose 2%). One of toxic chemical substances was added to the cell at logarithmic growth phase, and the cell was further cultured for two hours. Cell was cultured without any chemical substance in the same condition, and was used as a control. Concentrations of the chemical substances were defined to inhibit the growth of the yeast but not lead to death.
After the completion of cultivation, the culture was centrifuged to collect the cells. To the cells, sodium acetate buffer (50 mM sodium acetate, 10 mM EDTA, 1% SDS) was added, and the mixture was shaken at 65° C. for five minutes, followed by returning to room temperature, and obtaining the supernatant, which procedure was repeated two times. To the supernatant, ½ amount of a solution of phenol/chloroform (1:1) was added, and the mixture was centrifuged to give a supernatant, an equal amount of chloroform was added, and the mixture was centrifuged to give a supernatant. To the supernatant, an equal amount of isopropanol containing 0.3 M sodium acetate was added, and the mixture was allowed to stand at room temperature for 30 minutes, after which the mixture was centrifuged to give sediment of the whole RNAs. Seventy % ethanol was added to the sediment, and the mixture was again centrifuged to give sediment, which was then dried and dissolved in water. mRNA was isolated from the whole RNAs as followings. In view of the fact that a poly A chain is attached to the 3′ terminus of mRNA, a polynucleotide having a poly T structure which was immobilized on the surface of latex beads was used to trap the mRNA, and then the mRNA was washed and eluted with spine column (Oligotex-dT30<Super>mRNA Purification Kit, Takara). Reverse transcription of the mRNA was conducted with a reverse transcriptase (Super Script II Reverse Transcriptase; catalogue No. 18064-014, GibcoBRL) using fluorescence-labeled nucleotides to give cDNAs that were introduced with Cy3-dUTP or Cy5-dUTP during the reverse transcription.
The labeled cDNAs were dissolved in TE buffer (10 mM Tris-HCl/1 mM EDTA, pH 8.0), and the solution was dropped on the DNA chip containing the whole genes of yeast (DNA Chip Research Inc. Japan) so that the cDNAs were hybridized on the DNA chip at 65° C. for over 12 hours. The fluoresces intensity of the DNA chip was read with a scanner, and the ratio relative to the fluorescence intensity resulting from the absence of chemical substance was estimated as the following, which is shown in Tables 1 to 9.
In the Tables, “Intensity” indicated in the rightmost column is a value of the level of expressed mRNA of each gene in control cells as divided by the average level of the expressions of the whole genes. A gene of which mRNA level is lower in control, and is higher in cases of addition of chemical substance, is especially useful in the detection of toxic substances.
Here, when a ratio of an amount of mRNA expressed in the presence of the chemical substance to an amount of mRNA expressed in the absence of the chemical substance is two or more, then it is considered significant.

C[S+](C)[O-] [(15), Dimethyl sulfoxide]
The level of expressed mRNA in the presence of chemical substance/The level of expressed mRNA in the absence of chemical substance (yeast gene YJL152W, cultured two hours with substance): 0.8 | The level of expressed mRNA in the presence of chemical substance/The level of expressed mRNA in the absence of chemical substance (yeast gene YJL186W, cultured two hours with substance): 2.5 | level of expressed mRNA in the presence of chemical substance / level in the absence of chemical substance (yeast gene YJR030C, cultured two hours with the chemical substance): 0.8 | The level of expressed mRNA in the presence of chemical substance/The level of expressed mRNA in the absence of chemical substance (yeast gene YJR074W, cultured two hours with substance): 3.4 | level of expressed mRNA in the presence of chemical substance / level in the absence of chemical substance (yeast gene YKL051W, cultured two hours with the chemical substance): 1.5 | level of expressed mRNA in the presence of chemical substance / level in the absence of chemical substance (yeast gene YKL097C, cultured two hours with the chemical substance): 0.8 | level of expressed mRNA in the presence of chemical substance / level in the absence of chemical substance (yeast gene YKL100C, cultured two hours with the chemical substance): 1.7 | level of expressed mRNA in the presence of chemical substance / level in the absence of chemical substance (yeast gene YKR040C, cultured two hours with the chemical substance): 1.1 | The level of expressed mRNA in the presence of chemical substance/The level of expressed mRNA in the absence of chemical substance (yeast gene YKR046C, cultured two hours with substance): 2.9 | The level of expressed mRNA in the presence of chemical substance/The level of expressed mRNA in the absence of chemical substance (yeast gene YLR041W, cultured two hours with the chemical substance): 1.3 | The level of expressed mRNA in the presence of chemical substance/The level of expressed mRNA in the absence of chemical substance (yeast gene YLR132C, cultured two hours with substance): 2.3 | The level of expressed mRNA in the presence of chemical substance/The level of expressed mRNA in the absence of chemical substance (yeast gene YLR149C, cultured two hours with substance): 1.3 | The level of expressed mRNA in the presence of chemical substance/The level of expressed mRNA in the absence of chemical substance (yeast gene YLR151C, cultured two hours with the substance): 0.7 | The level of expressed mRNA in the presence of chemical substance/The level of expressed mRNA in the absence of chemical substance (yeast gene YLR152C, cultured two hours with substance): 0.8 | The level of expressed mRNA in the presence of chemical substance/The level of expressed mRNA in the absence of chemical substance (yeast gene YLR205C, cultured two hours with substance): 2.5 | level of expressed mRNA in the presence of chemical substance / level in the absence of chemical substance (yeast gene YLR226W, cultured two hours with the chemical substance): 1.3 | The level of expressed mRNA in the presence of chemical substance/The level of expressed mRNA in the absence of chemical substance (yeast gene YLR304C, mitochondria-located protein gene, cultured two hours with substance): 1.6 | The level of expressed mRNA in the presence of chemical substance/The level of expressed mRNA in the absence of chemical substance (yeast gene YLR307W): 3.9 | level of expressed mRNA in the presence of chemical substance / level in the absence of chemical substance (yeast gene YLR338W, cultured two hours with the chemical substance): 1.5 | The level of expressed mRNA in the presence of chemical substance/The level of expressed mRNA in the absence of chemical substance (yeast gene YLR391W): 3.9 | level of expressed mRNA in the presence of chemical substance / level in the absence of chemical substance (yeast gene YLR392C, cultured two hours with the chemical substance): 0.5 | The level of expressed mRNA in the presence of chemical substance/The level of expressed mRNA in the absence of chemical substance (yeast gene YLR395C, mitochondria-located protein gene, cultured two hours with substance): 0.4 | level of expressed mRNA in the presence of chemical substance / level in the absence of chemical substance (yeast gene YLR415C, cultured two hours with the chemical substance): 1.0 | level of expressed mRNA in the presence of chemical substance / level in the absence of chemical substance (yeast gene YLR427W, cultured two hours with the chemical substance): 0.8 | The level of expressed mRNA in the presence of chemical substance/The level of expressed mRNA in the absence of chemical substance (yeast gene YLR444C, cultured two hours with the substance): 1.3 | level of expressed mRNA in the presence of chemical substance / level in the absence of chemical substance (yeast gene YML013W, cultured two hours with the chemical substance): 2.2 | level of expressed mRNA in the presence of chemical substance / level in the absence of chemical substance (yeast gene YML029W, cultured two hours with the chemical substance): 0.8 | level of expressed mRNA in the presence of chemical substance / level in the absence of chemical substance (yeast gene YML041C, cultured two hours with the chemical substance): 1.0 | level of expressed mRNA in the presence of chemical substance / level in the absence of chemical substance (yeast gene YML079W, cultured two hours with the chemical substance): 0.3 | The level of expressed mRNA in the presence of chemical substance/The level of expressed mRNA in the absence of chemical substance (yeast gene YML128C, cultured two hours with substance): 2.6 | The level of expressed mRNA in the presence of chemical substance/The level of expressed mRNA in the absence of chemical substance (yeast gene YMR031C, cultured two hours with the substance): 0.7 | level of expressed mRNA in the presence of chemical substance / level in the absence of chemical substance (yeast gene YMR068W, cultured two hours with the chemical substance): 2.2 | level of expressed mRNA in the presence of chemical substance / level in the absence of chemical substance (yeast gene YMR071C, cultured two hours with the chemical substance): 0.8 | The level of expressed mRNA in the presence of chemical substance/The level of expressed mRNA in the absence of chemical substance (yeast gene YMR083W, mitochondria-located protein gene, cultured two hours with substance): 1.3 | The level of expressed mRNA in the presence of chemical substance/The level of expressed mRNA in the absence of chemical substance (yeast gene YMR090W, cultured two hours with substance): 1.9 | level of expressed mRNA in the presence of chemical substance / level in the absence of chemical substance (yeast gene YMR160W, cultured two hours with the chemical substance): 1.5 | level of expressed mRNA in the presence of chemical substance / level in the absence of chemical substance (yeast gene YNL026W, cultured two hours with the chemical substance): 0.8 | level of expressed mRNA in the presence of chemical substance / level in the absence of chemical substance (yeast gene YNL058C, cultured two hours with the chemical substance): 2.2 | level of expressed mRNA in the presence of chemical substance / level in the absence of chemical substance (yeast gene YNL063W, cultured two hours with the chemical substance): 0.7
